# Test results taken from patent US20220095615A1, “NEMATODE DETERRENT COMPOSITIONS” (SALK INSTITUTE FOR BIOLOGICAL STUDIES, priority 2018, published 2022).
# Counter-ions that a name gives are not always drawn.
# Experiments:
# C. elegans [1] = experiment: Single animal avoidance assay (avoidance index); assay type: in vivo, Caenorhabditis elegans; conditions: for activity of synthetic sulfolipids in the avoidance assay: synthetic compounds, FIG. 10a
# Experimental: Adult C. elegans were exposed to a small volume of a test compound (0.05 μl) near the head of the animal. Upon sensing a repellent, animals initiate a reversal followed by an omega bend. Positive responses to a test compound were scored only if they occurred within 4 s. Results are shown as the avoidance index, which is the ratio of number of positive responses to the total number of trials. Each animal is tested thrice and data is presented as average of the animals tested on at least 3 days (FIGS. 1-4 and FIGS. 8-13). For Data in FIG. 18b, animals were pre-treated with various drugs at 100 μM for 30 min and then their responses to predator cue were analyzed. Each assay was performed in triplicate (5 animals per condition) and on at least 3 different days […]. For Data shown in FIG. 4, animals were pre-treated with 1 mM Sertraline (Sigma) or M9 control for 3 min before being tested for their responses in the avoidance assay. We also performed additional controls to test whether an animal's response to the three repellent trials were independent.
# Two-tailed unpaired t-tests were used to compare different strains, genotypes, and conditions, and the Bonferroni correction was used to adjust for multiple comparisons. Avoidance indices of all strains tested and controls are shown in Supplementary Table S7 of Liu et al., Nature Communications 9: 1128 (2018)).
# Adult nematodes were exposed to a small volume of a test compound (0.05 μl) near the head of the animal. Upon sensing a repellent, animals initiate a reversal followed by an omega bend. Positive responses to a test compound were scored only if they occurred within 4 s. Results are shown as the avoidance index, which is the ratio of number of positive responses to the total number of trials. Each animal is tested thrice and data is presented as average of the animals tested on at least 3 days.
# C. elegans [2] = experiment: Chemotaxis assay for volatile components; assay type: in vivo, Caenorhabditis elegans; conditions: Benzaldehyde 1:200, 2-nonanone undiluted, 60 min, FIG. 8D
# Experimental: Chemotaxis assays were performed on 2% agar square (10 cm) plates containing 5 mM potassium phosphate (pH 6), 1 mM CaCl2, and 1 mM MgSO4. Animals were washed three times in M9 and once in chemotaxis buffer (5 mM potassium phosphate (pH 6), 1 mM CaCl2, and 1 mM MgSO4) and then placed in the middle of the plate (FIG. 8c). Two spots of the collected nematode secretions and two control M9 spots (all 1 μl) were added to opposite sides of the plate, generating gradients of any volatile components in the nematode secretions. Animals were allowed to explore these gradients for 1 h, after which they were counted and the chemotaxis index calculated (FIG. 8d). Benzaldehyde (1:200) and 2-nonanone (undiluted) were used as control attractants and repellents, respectively^25. Nine or more assays were performed on at least three different days. Two-tailed unpaired t-tests were used to compare C. elegans responses to different secretions, and the Bonferroni correction was used to adjust for multiple comparisons.
# C. elegans [3] = experiment: Egg-laying assay; assay type: in vivo, Caenorhabditis elegans; conditions: predator cue with sertraline (1 mM) for 30 min, egg-laying monitored 60 min after removal, FIG. 4f
# Experimental: Synchronized Day 1 adults were treated with M9 control buffer or concentrated predator cue for 30 min. These animals were transferred to a 2-day lawn of 100 μl OP50 bacteria (OD600=0.5) and allowed to lay eggs. Eggs were counted at the time intervals shown. In each condition and genotype, at least 35 animals were analyzed. Average number of eggs and s.e.m. are presented with two-tailed unpaired t-tests with Bonferroni correction for statistical analysis. To test the effect of sulfolipids on egg-laying behavior, these compounds were dissolved in DMSO and further diluted in M9 to obtain the concentrations indicated. Sertraline effects were analyzed by exposing animals to predator cue with or without sertraline (1 mM) for 30 min.
# C. elegans [4] = conditions: literature reference; cited from earlier work
compound,measurement,setting,value
"CC(C)CCC(CCCCCCCCCO)OS(=O)(=O)O (stereo not drawn) [sufal #1, 14-hydroxy-2-methyltetradecan-5-yl Hydrogen Sulfate]",activity of synthetic sulfolipids in the avoidance assay,C. elegans [1],accounted for most of the isolated activity
O=Cc1ccccc1 [Benzaldehyde],chemotaxis response to control attractant and repellent,C. elegans [2],strong responses
CN[C@H]1CC[C@@H](c2ccc(Cl)c(Cl)c2)c2ccccc21 [sertraline],duration of the drug effects (decay of the sertraline effect),"C. elegans [1]; predator cue, FIG. 13C legend",about 30 minutes
same,concentration dependence of suppression of avoidance behavior,"C. elegans [1]; predator cue, FIG. 13b",dependent on drug concentration
same,duration of suppression of avoidance after the drug was removed,"C. elegans [1]; predator cue, FIG. 13c",at least 30 min
same,sertraline modulation of avoidance in eat-4 mutants,"C. elegans [1]; predator cue, eat-4 (vesicular glutamate transporter) mutants, FIG. 4c",significant sertraline-induced modulation of avoidance behavior
same,sertraline effect on behavior of tax-4 or ocr-2 mutants,"C. elegans [1]; predator cue, tax-4 or ocr-2 mutants, FIG. 4b",no detectable effect
same,sertraline attenuation in unc-25 mutants,"C. elegans [1]; predator cue, unc-25 (glutamic acid decarboxylase) mutants, FIG. 4c",defective in sertraline attenuation
same,sertraline effect on avoidance to predator cue,"C. elegans [1]; wild-type, pre-treated with sertraline (1 mM), FIG. 4a",attenuated avoidance
same,sertraline effect on avoidance responses to fructose,"C. elegans [1]; wild-type, pre-treated with sertraline, FIG. 4a",attenuated avoidance responses
same,sertraline effect on avoidance to purified sulfolipids,"C. elegans [1]; wild-type, pre-treated with sertraline, FIG. 13a",attenuated avoidance
same,sertraline effect on predator cue-induced egg-laying response,C. elegans [3],reduced the longer-lasting egg-laying response
"CCCCCCCCCCCCOS(=O)(=O)[O-].[Na+] [SDS, sodium dodecyl sulfate]",C. elegans avoidance cue potency,C. elegans [4],potent
"CC(C)CCCC(CCCCCCCCO)OS(=O)(=O)O (stereo not drawn) [sufal #2, 14-hydroxy-2-methyltetradecan-6-yl Hydrogen Sulfate]",activity of synthetic sulfolipids in the avoidance assay,C. elegans [1],accounted for most of the isolated activity
"CCCCCCCC(C)=O [Sulfolipid 2-nonanone, 2-nonanone]",chemotaxis response to control attractant and repellent,C. elegans [2],strong responses
